The values below come from publication PMC12662691, “DDX3X Promotes Rotavirus Infection and Serves as an Antiviral Target” (Transboundary and Emerging Diseases, 2025).

The structures appear in SMILES notation.

In assay [1] the test system is MYAS33 RV strain. Nature of the assay: Antiviral efficacy screen, western blot of viral proteins. Particulars: range of drug concentrations. The assay is classed as cell-based, Rotavirus. How it is done: (a) Drugs were selected by gene dependent and network dependent strategy based on VP4 interacting proteins. (b) Cells were treated with a range of drug concentrations, and then, infected with MYAS33 RV strain. Subsequently, the cells were collected and subjected to western blot analysis to detect viral proteins.
Cells were collected, washed with PBS, and digested with trypsin. The cells were then collected in PBS into centrifuge tubes. After centrifugation, the supernatant was discarded. The cells was lysed, and the resulting lysate was transferred to a new centrifuge tube. 5 × SDS-PAGE sample buffer was added, and the samples were boiled in a water bath. Subsequently, SDS-PAGE was performed, and the proteins were transferred onto nitrocellulose membranes. The membranes were blocked with 5% skim milk at room temperature, washed three times with TBST, and incubated overnight at 4°C with primary antibodies. After washing three times with TBST, corresponding secondary antibodies were added and incubated for 1 h at room temperature. Following three additional washes with TBST, ECL reagent was prepared and applied to the membrane. Finally, the membrane was exposed in a chemiluminescence imaging system.

The subject of assay [2] is MYAS33 RV strain. The assay can be described thus: EC50 determination of anti-RV activity by RT-qPCR, MYAS33 strain. Conditions: Rotavirus, 0.1 MOI, 24 h, read-out: EC50 against RV infection. Type of assay: cell-based. How it is done:
(§1) Cells were seeded into 96-well plates, allowed to adhere, followed by drug inoculation in a concentration gradient along with RV infection at 0.1 MOI. After 24 h, cells were collected, total RNA was extracted, reverse transcription was performed, and RV was detected by RT-qPCR. The EC50 of the drug was calculated.
In general terms: Real-time PCR tracks product formation cycle by cycle.

Assay [3] deals with MSLH14 RV strain. Nature of the assay: EC50 determination of anti-RV activity by RT-qPCR, MSLH14 strain. The assay is classed as cell-based, Rotavirus. How it is done:
as §1

Assay [4] relates to MSLH14 RV strain. The assay can be described thus: In vivo drug experiment in RV-challenged neonatal mice. Particulars: neonatal Kunming mice. How it is done: Pregnant Kunming mice were individually housed and bred until delivery. Neonatal mice were raised for 1 week. Mice were inoculated with 10^4 TCID50 units of the MSLH14 RV strain via gavage. Drug administration was performed with 0.005 mg/g (low dose group) or 0.01 mg/g (high dose group). The drugs were dissolved in a solvent formulated as follows: 10% DMSO, 40% PEG300, 5% Tween-80, and 45% normal saline. Viral titers in the small intestine were determined using the TCID50 method. Spleens were collected for total RNA extraction, followed by reverse transcription and cytokine detection. For histopathological examination, tissues were fixed with 4% paraformaldehyde, paraffin embedded, sectioned into slices, and stained with hematoxylin and eosin following standard protocols as previously described.

The subject of assay [5] is MYAS33 RV strain. Nature of the assay: RK-33 viral titer by TCID50. Type of assay: cell-based, Rotavirus. How it is done:
(§2) Figure 7 RK-33 inhibits RV infection. (a, b) Cells were incubated with 10 μM RK-33 and infected with MYAS33 RV strain. The viral detection was conducted at 3, 6, 12, and 24 hpi by RT-qPCR detection, and at 12 and 24 hpi by TCID50. (c, d) EC50 of RK-33 against MSLH14 and SA11 strains was measured. (e) Flowchart of in vivo drug experiment. (f) Weight gain rate of mice. (g) Intestinal virus titer detection in mice. (h) H&E staining of intestine. (i–l) Cytokine detection of spleen. Statistical significance is determined by Student's test (^∗p < 0.05; ^∗∗p < 0.01; ^∗∗∗p < 0.001; ^∗∗∗∗p < 0.0001). HD, high dose; LD, low dose; ns, not significant. […] The name RK-33 is printed only in the plot legends of panels a and b.

Assay [6] relates to SA11 RV strain. Nature of the assay: EC50 determination of anti-RV activity by RT-qPCR, SA11 strain. Type of assay: cell-based, Rotavirus. How it is done: as §1
The test system of assay [7] is MYAS33 RV strain. Nature of the assay: RK-33 time course of RV infection, RT-qPCR. Type of assay: cell-based, Rotavirus. How it is done:
as §2
Total RNA was extracted from collected samples using TRIzol reagent (Sangon Biotech) and subsequently reverse transcribed into cDNA using a premix reverse transcriptase (Vazyme). For qPCR analysis, a SYBR Green qPCR Mix kit (Promega) was utilized in combination with a CFX96 system. All procedures were carried out following the manufacturers' guidelines as described previously.

Where [8] appears, read: MSLH14, spleen, RT-qPCR, vs untreated controls.

The EC50 is the concentration needed to bring the measured effect to its halfway point. Take `CC(COc1ccccc1Cc1ccccc1)N1CCCCC1` (centres unmarked) [benproperine phosphate]: the “Inhibitory effect against RV infection (antiviral efficacy screen)” value (from here on “Inhibitory effect against RV infection”) in assay [1] is listed as “exhibited inhibitory effects”. In addition, the 50% effective concentration (EC50) in assay [2] came to 4.69 µM.

Take `Clc1cccc(N2CCN(c3cnnc4c(Cl)cccc34)CC2)c1` [FiVe 1]: the “Inhibitory effect against RV infection” value in assay [1] is “exhibited inhibitory effects”. Further, in assay [2], the EC50 is 3.99 µM.

`Cc1[nH]c2ccccc2c1CCNC(=O)c1cccs1` [CK-636]: the “Inhibitory effect against RV infection” value in assay [1] is “exhibited inhibitory effects”. Also, the concentration giving a half-maximal response (EC50) in assay [2] was 5.3 µM.

Regarding `COCCCC/C(=N\OCCN)c1ccc(C(F)(F)F)cc1` [fluvoxamine], the “Inhibitory effect against RV infection” value in assay [1] is listed as “exhibited inhibitory effects”. In addition, the EC50 in assay [2] stood at 14.8 µM.

With `Cc1[nH]c2ccccc2c1CCNC(=O)c1ccccc1F` [CK-666], the “Inhibitory effect against RV infection” value in assay [1] was “exhibited inhibitory effects”. In addition, the concentration for a half-maximal effect (EC50) in assay [2] worked out at 2.85 µM.

As to `COc1ccc(Cn2c3ncnc4c(ncn4Cc4ccc(OC)cc4)c-3nc2=O)cc1` [RK-33], the “Inhibition of MSLH14 infection” value in assay [3] was “also inhibits SA11 and MSLH14 infections”. The EC50 in assay [3] (Rotavirus, 0.1 MOI, 24 h, RT-qPCR, read-out: EC50 against MSLH14) came out at 0.91 µM; in assay [2], 1.05 µM; in assay [6] (Rotavirus, 0.1 MOI, 24 h, RT-qPCR, read-out: EC50 against SA11), 0.86 µM. Besides, the “Inhibitory effect against RV infection” value in assay [1] is reported as “exhibited inhibitory effects”. In addition, in assay [4] (MSLH14, 5 days postinfection), the “Intestinal lesions (H&E histopathology)” value was “alleviated intestinal lesions”. The “Spleen IFNG level” value in assay [4] (setting [8]) is recorded as “significantly reduced levels”. Moreover, the “Spleen IL-1B level” value in assay [4] (setting [8]) is on record as “significantly reduced levels”. Besides, the “Spleen IL-6 level” value in assay [4] (setting [8]) is on record as “significantly reduced levels”. The “Spleen TNFA level” value in assay [4] (setting [8]) was “significantly reduced levels”. Also, the “Recovery of body weight (weight gain rate)” value in assay [4] (MSLH14 by gavage, 0.005 mg/g (low dose) or 0.01 mg/g (high dose), vs untreated controls) is listed as “faster recovery of body weight”. The “Intestinal viral titer (TCID50)” value in assay [4] (MSLH14 by gavage, 0.005 or 0.01 mg/g, small intestine, vs untreated controls) is “significantly reduced”. Besides, the “Viral titer (TCID50)” value in assay [5] (10 μM RK-33, MYAS33, 12 h) is on record as “inhibited MYAS33 strain infection”; in assay [5] (10 μM RK-33, MYAS33, 24 h) it was “inhibited MYAS33 strain infection”. The “Inhibition of SA11 infection” value in assay [6] is “also inhibits SA11 and MSLH14 infections”. Also, the “Inhibitory effect on RV (RT-qPCR)” value in assay [7] (10 μM RK-33, MYAS33, 3 hpi) is given as “no significant inhibitory effect”; in assay [7] (10 μM RK-33, MYAS33, 6 hpi), “pronounced antiviral activity”; in assay [7] (10 μM RK-33, MYAS33, 12 hpi), “pronounced antiviral activity”; in assay [7] (10 μM RK-33, MYAS33, 24 hpi) it was “pronounced antiviral activity”.
